pIC50: −log10 of the molar value.
How the values were obtained:
calcitonin receptor [1] = target: T1, calcitonin receptor (Rattus norvegicus, UniProt P32214); test: binding to the calcitonin receptor (125I-salmon calcitonin displacement, rat renal plasma membrane); parameters: species or system rat (Sprague-Dawley)
T1 construct: Kidneys were removed and placed in ice cold saline; from tissue; host or cells: Sprague-Dawley rat kidney, renal plasma membrane
T1 sequence (P32214 25-479 isoform P32214-2 limits assumed): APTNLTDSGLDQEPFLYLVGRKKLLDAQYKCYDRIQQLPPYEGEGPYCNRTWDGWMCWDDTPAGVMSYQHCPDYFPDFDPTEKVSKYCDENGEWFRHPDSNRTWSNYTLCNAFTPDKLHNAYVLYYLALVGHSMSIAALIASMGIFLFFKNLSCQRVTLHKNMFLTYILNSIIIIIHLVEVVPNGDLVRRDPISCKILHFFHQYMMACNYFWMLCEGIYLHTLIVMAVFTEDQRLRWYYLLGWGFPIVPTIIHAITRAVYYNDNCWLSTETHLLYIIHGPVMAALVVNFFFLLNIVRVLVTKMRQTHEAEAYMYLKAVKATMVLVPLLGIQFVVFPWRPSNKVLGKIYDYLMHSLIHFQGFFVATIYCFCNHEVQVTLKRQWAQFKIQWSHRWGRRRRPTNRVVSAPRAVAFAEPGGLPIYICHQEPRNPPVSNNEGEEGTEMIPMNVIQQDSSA
Description: The first in vitro standard pharmacological test procedure measures the ability of the compound to be evaluated to bind to the calcitonin receptor. The following describes the procedure used and the results obtained.
Adult female or male Sprague-Dawley rats (250-350 gm), were euthanized by CO2 asphyxiation. Kidneys were removed and placed in ice cold saline; all subsequent procedures were carded out at 4° C. Kidneys were decapsulated and coarsely minced with scissors. […]
Samples were incubated for 1 hour at room temperature. […] The filters were counted for a period of 2 minutes per sample utilizing an LKB Betaplate Reader.

calcitonin receptor [2] = target: T2, calcitonin receptor (Homo sapiens, UniProt P30988); test: calcitonin agonist test: cAMP generation in T-47D cells; assay type: cell-based; conditions: for cAMP: basal 1
T2 construct: host or cells: T-47D
T2 sequence (P30988 25-474): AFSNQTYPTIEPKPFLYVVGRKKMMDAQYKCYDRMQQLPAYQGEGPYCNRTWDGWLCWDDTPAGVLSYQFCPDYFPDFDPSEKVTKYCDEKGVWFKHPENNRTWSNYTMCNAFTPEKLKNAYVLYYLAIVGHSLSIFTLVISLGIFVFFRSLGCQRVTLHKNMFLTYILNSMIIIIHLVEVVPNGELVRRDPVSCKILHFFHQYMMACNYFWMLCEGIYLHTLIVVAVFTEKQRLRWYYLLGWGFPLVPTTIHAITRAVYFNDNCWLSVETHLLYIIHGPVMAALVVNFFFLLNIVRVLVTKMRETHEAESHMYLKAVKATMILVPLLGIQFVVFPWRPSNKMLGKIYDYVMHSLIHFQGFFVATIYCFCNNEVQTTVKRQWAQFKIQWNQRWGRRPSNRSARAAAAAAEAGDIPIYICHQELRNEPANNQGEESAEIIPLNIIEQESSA
From the text: The second in vitro standard pharmacological test procedure determines the ability of the compound to be evaluated to act as a calcitonin agonist, by measuring the levels of cAMP produced in response to the test compound. The following briefly describes the procedure used and the results obtained.
cAMP was generated in T-47D cells (a human mammary carcinoma cell line available from the American Type Culture Collection, Rockville, Md., USA) according to the following procedure. […] After the incubation was completed, the growth medium was aspirated from the cells in the plate.
Fifty ul of antiserum was added to all wells with the exception of the non-specific binding wells (NSB). Fifty ul of the SPA anti-rabbit reagent was added to all wells.
Intracellular cAMP levels in the T-47D cells following salmon calcitonin stimulation for 10 rain at 37° C. are as follow: […]

osteoclasts = test: inhibition of bone resorption by osteoclasts (pits excavated per bone slice); assay type: cell-based; conditions: Osteoclast, neonatal rat osteoclasts on bovine cortical bone slices, 24 h
Description: Briefly, osteoclasts were isolated from neonatal rat long bones by mincing the bones in Medium 199 containing Hank's salts (3 ml per 10 bones from each of 5 animals). Osteoclasts were dislodged from the bone fragments by aspirating the bone fragments 50 times into and out of a transfer pipette. 100 μl of the resulting cell suspension from each animal was then plated onto each of 3 (per dose) 4.4 mm^2 slices of devitalized bovine femoral cortical bone that had been placed in the wells of a 96 well plate and pre-wetted with 100 μl of the medium. The osteoclasts were then allowed to adhere for 25 minutes at 37° C. The slices, with adherent osteoclasts, were then rinsed in 5 ml of medium to remove non-adherent cells. The slices were then transferred to Medium 199 containing Earle's salts with only 0.7 g/L NaHCO3 (to ensure that the medium equilibrates to a pH of 6.8-7.1 in a 5% CO2 atmosphere) and 10% heat-inactivated fetal bovine serum. […] The excavations (pits) made by the osteoclasts in the surface of the bone were visualized by staining with 1% toluidine blue for 3 minutes and bone resorption quantified microscopically by counting the number of pits excavated per slice.

[3] = effect on serum calcium levels in young growing rats; assay type: in vivo, rat; parameters: Serum Calcium: unit not given here; conditions: for Serum Calcium: mean
Description: {5R*-[6R*, 7S*, 8R*, 9R*, 12S*, 16S*, 18S*, 19S*, (13E)]} 4, 7, 19-Trihydroxy-2, 6, 8, 12, 12, 14, 16, 18-heptamethyl-6, 7, 8, 9, 10, 11, 12, 15, 16, 17, 18, 19-dodecahydro-1, 19:5, 9-diepoxybenzocyclooctadecen-3(5H)-one was also evaluated in an in vivo standard pharmacological test procedure that measures the effect of the test compound on serum calcium levels. Agents that inhibit bone resorption, such as calcitonin, regulate circulating calcium levels by inhibiting osteoclast mediated osteolysis and thereby inhibit the release of calcium from bone. The decrease in serum calcium levels following drug treatment indicates bone sparing activity. Calcitonin acts on specific membrane receptors of the bone resorbing osteoclast cells eliciting second messenger events such as increased cAMP generation that leads to inhibition of the cell's motility and inhibition of its bone resorbing functional activity. If bone turnover activity is high, such as in the young growing rat, this rapid inhibition in bone resorption is reflected by a transient decrease in circulating calcium. […] Young adult male rats weighing 160-170 g were held for at least 72 hours after receipt to acclimatize to colony conditions and then were randomly assigned to groups of 5-7 rats/group for treatment. The rats were administered vehicle or test compound, and at intervals between 0.5 and 3 hours after dosing, 1.0 ml of blood was collected from each rat under ketamin/acepromazine anesthesia via tail artery or (terminal via) cardiac puncture. Serum was evaluated for total calcium using a NOVA 7+7 blood analyzer.
In this standard pharmacological test procedure, all animals were dosed at 0 hours. For animals treated with the compound of Formula I, animals were bled sequentially. For animals treated with salmon calcitonin and untreated normal animals, a different group was used at each time point.

## CC1=C2O[C@]3(O)C=C2C(=C(O)C1=O)[C@@H]1O[C@H](CC[C@H](C)/C=C(\C)C[C@@H](C)C[C@@H]3C)[C@H](C)[C@H](O)[C@H]1C (relative stereo) [Formula I, {5R*-[6R*, 7S*, 8R*, 9R*, 12S*, 16S*, 18S*, 19S*, (13E)]} 4,7, 19-Trihydroxy-2,6,8, 12, 12, 14, 16, 18-heptamethyl-6,7,8,9, 10, 11, 12, 15, 16, 17, 18, 19-dodecahydro-1, 19:5,9-diepoxybenzocyclooctadecen-3(5H)-one]
Calcitonin receptor [1]
  inhibition of the binding of calcitonin to the calcitonin receptor (in words): competitively inhibited
Calcitonin receptor [1]; 1 hour at room temperature
  pIC50: 4.69
Calcitonin receptor [2]; 10 min at 37° C., 10 μM IBMX, read-out: EC50, cAMP production (converted)
  EC50: 0.616 µM
Calcitonin receptor [2]; cAMP
  calcitonin agonist activity (in words): potent calcitonin agonist
osteoclasts
  IC50: 0.8 µg/mL
[3]; 10 mg/kg, i.p., 0.5 hours, normals 10.92
  Serum Calcium: 10.73
[3]; 10 mg/kg, i.p., 1.5 hours, normals 10.88, p < 0.01
  Serum Calcium: 10.21
[3]; 10 mg/kg, i.p., 3.0 hours, normals 10.40, p < 0.01
  Serum Calcium: 9.99
[3]; 30 mg/kg, i.p., 0.5 hours, normals 10.92
  Serum Calcium: 10.60
[3]; 30 mg/kg, i.p., 1.5 hours, normals 10.88, p < 0.05
  Serum Calcium: 10.43
[3]; 30 mg/kg, i.p., 3.0 hours, normals 10.40
  Serum Calcium: 10.18
[3]; 100 mg/kg, i.p., 0.5 hours, normals 10.92, p < 0.01
  Serum Calcium: 10.29
[3]; 100 mg/kg, i.p., 1.5 hours, normals 10.88, p < 0.01
  Serum Calcium: 10.19
[3]; 100 mg/kg, i.p., 3.0 hours, normals 10.40, p < 0.05
  Serum Calcium: 10.06
[3]; young growing rats, summary statement
  reduction of serum calcium levels (in words): significantly reduced serum calcium levels

## Salmon Calcitonin
Calcitonin receptor [2]; calcitonin 0.0001 nM, 10 min at 37° C.
  cAMP: 2 pmol/mL
Calcitonin receptor [2]; calcitonin 0.001 nM, 10 min at 37° C.
  cAMP: 13 pmol/mL
Calcitonin receptor [2]; calcitonin 0.01 nM, 10 min at 37° C.
  cAMP: 105 pmol/mL
Calcitonin receptor [2]; calcitonin 0.1 nM, 10 min at 37° C.
  cAMP: > 640 pmol/mL
[3]; 5 IU/rat, s.c., 0.5 hours, normals 10.92, p < 0.01
  Serum Calcium: 8.17
[3]; 5 IU/rat, s.c., 1.5 hours, normals 10.88, p < 0.01
  Serum Calcium: 7.45
[3]; 5 IU/rat, s.c., 3.0 hours, normals 10.40, p < 0.01
  Serum Calcium: 6.65
